Measurements from patent publication US20110039721A1, “METHOD FOR PREDICTION ABOUT CARCINOGENICITY OF SUBSTANCE IN RODENT” (Chemicals Evaluation and Research Institute, priority 2007, published 2011).

What was measured:
[1] = system: mRNA expressed from the genes (A) to (D) in rat liver; assay: Behavior of genes (mRNA expression level, oligo-DNA microarray) in rat liver after 28-day oral administration; type: in vivo
Method in brief: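 Liver mRNA levels were compared with matched vehicle groups, with a shift of at least 1.5-fold up or down deemed significant unless its direction disagreed with other carcinogens. Test substances were dosed orally by gavage daily for 28 days to 5-week-old male F344 rats, four per group.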

[2] = classification of the substance (M+/M−); cited from earlier work
rodent = conditions: classification of the substance (C+/C−); cited from earlier work
liver = conditions: classification of the substance (Cr+/Cr−); cited from earlier work
[3] = gene group (A), Unigene No. Rn.167075
[4] = gene group (C), Unigene No. Rn.120914

For `Clc1ccc(C(c2ccc(Cl)cc2)C(Cl)(Cl)Cl)cc1` [TS016, Dichloro-diphenyl-trichloroethane], the “Behavior of gene caused by administration of chemical substance, Gene No. 4846” value ([1]; gene group (A), Unigene No. Rn.144554) was “−”, the “Behavior of gene caused by administration of chemical substance, Gene No. 2026” value [1, 3] was “−” and the “Behavior of gene caused by administration of chemical substance, Gene No. 4218” value [1, 3] was “−”. The “Behavior of gene caused by administration of chemical substance, Gene No. 6182” value ([1]; gene group (A), Unigene No. Rn.5834) was “+”, the “Behavior of gene caused by administration of chemical substance, Gene No. 5600” value ([1]; gene group (A), Unigene No. Rn.9836) was “−” and the “Behavior of gene caused by administration of chemical substance, Gene No. 1494” value ([1]; gene group (B), Unigene No. Rn.1430) was “+”. For the same compound, the “Behavior of gene caused by administration of chemical substance, Gene No. 2045” value ([1]; gene group (B), Unigene No. Rn.19329) was “+”, the “Behavior of gene caused by administration of chemical substance, Gene No. 2203” value ([1]; gene group (B), Unigene No. Rn.21240) was “+” and the “Behavior of gene caused by administration of chemical substance, Gene No. 533” value ([1]; gene group (C), Unigene No. Rn.106184) was “+”. The “Behavior of gene caused by administration of chemical substance, Gene No. 725” value ([1]; gene group (C), Unigene No. Rn.108075) was “−”, the “Behavior of gene caused by administration of chemical substance, Gene No. 1163” value ([1]; gene group (C), Unigene No. Rn.11766) was “−” and the “Behavior of gene caused by administration of chemical substance, Gene No. 4973” value ([1]; gene group (C), Unigene No. Rn.118529) was “−”. For the same compound, the “Behavior of gene caused by administration of chemical substance, Gene No. 4095” value ([1]; gene group (C), Unigene No. Rn.119024) was “+”, the “Behavior of gene caused by administration of chemical substance, Gene No. 1334” value [1, 4] was “−” and the “Behavior of gene caused by administration of chemical substance, Gene No. 6620” value [1, 4] was “−”. The “Behavior of gene caused by administration of chemical substance, Gene No. 6303” value ([1]; gene group (C), Unigene No. Rn.123063) was “−”, the “Behavior of gene caused by administration of chemical substance, Gene No. 5878” value ([1]; gene group (C), Unigene No. Rn.143213) was “−” and the “Behavior of gene caused by administration of chemical substance, Gene No. 1131” value ([1]; gene group (C), Unigene No. Rn.144946) was “−”. For the same compound, the “Behavior of gene caused by administration of chemical substance, Gene No. 1562” value ([1]; gene group (C), Unigene No. Rn.14744) was “−”, the “Behavior of gene caused by administration of chemical substance, Gene No. 1741” value ([1]; gene group (C), Unigene No. Rn.1647) was “+” and the “Behavior of gene caused by administration of chemical substance, Gene No. 893” value ([1]; gene group (C), Unigene No. Rn.164817) was “−”. The “Behavior of gene caused by administration of chemical substance, Gene No. 6026” value ([1]; gene group (C), Unigene No. Rn.167685) was “−”, the “Behavior of gene caused by administration of chemical substance, Gene No. 154” value ([1]; gene group (C), Unigene No. Rn.185941) was “−” and the “Behavior of gene caused by administration of chemical substance, Gene No. 1993” value ([1]; gene group (C), Unigene No. Rn.18728) was “−”. For the same compound, the “Behavior of gene caused by administration of chemical substance, Gene No. 813” value ([1]; gene group (C), Unigene No. Rn.201760) was “−”, the “Behavior of gene caused by administration of chemical substance, Gene No. 2494” value ([1]; gene group (C), Unigene No. Rn.23969) was “+” and the “Behavior of gene caused by administration of chemical substance, Gene No. 2546” value ([1]; gene group (C), Unigene No. Rn.24561) was “−”. For the same compound, the “Behavior of gene caused by administration of chemical substance, Gene No. 3776” value ([1]; gene group (C), Unigene No. Rn.43232) was “−”, the “Behavior of gene caused by administration of chemical substance, Gene No. 3929” value ([1]; gene group (C), Unigene No. Rn.4620) was “−” and the “Behavior of gene caused by administration of chemical substance, Gene No. 1119” value ([1]; gene group (C), Unigene No. Rn.9757) was “−”. For the same compound, the “Behavior of gene caused by administration of chemical substance, Gene No. 6742” value ([1]; gene group (C), Unigene No. Rn.9779) was “+”, the “Behavior of gene caused by administration of chemical substance, Gene No. 5634” value ([1]; gene group (C), Unigene No. Rn.9862) was “+” and the “Behavior of gene caused by administration of chemical substance, Gene No. 5726” value ([1]; gene group (D), Unigene No. Rn.9939) was “−”. The “Mutagenicity by Ames test” value [2] was “M−”, the Carcinogenicity (rodent) was “C+” and the Liver carcinogenicity (liver) was “Cr+”.
